Measurements: the NIST ThermoML archive (doi:10.1016/j.tca.2018.05.007)
“And” between values parts separate entries of the source, which are not always exact repeats. Equal values may be shown once.

Conditions: Liquid, Rate of evaporation

OCCN(CCO)CCO [triethanolamine]
Conditions	vapor or sublimation pressure
365 K	0.000835 kPa
375 K	0.002129 kPa and 0.002041 kPa
385 K	0.005005 kPa and 0.004526 kPa
395 K	0.01093 kPa and 0.009521 kPa
400 K	0.01404 kPa
405 K	0.02229 kPa and 0.01908 kPa
410 K	0.02726 kPa
415 K	0.04274 kPa and 0.03658 kPa and 0.03733 kPa
420 K	0.05078 kPa
425 K	0.07739 kPa and 0.06729 kPa and 0.06993 kPa
430 K	0.09108 kPa and 0.0987 kPa and 0.0881 kPa
435 K	0.133 kPa and 0.1191 kPa and 0.1259 kPa
440 K	0.1577 kPa and 0.1715 kPa and 0.1578 kPa
445 K	0.2176 kPa and 0.2036 kPa and 0.2184 kPa
450 K	0.2644 kPa and 0.2908 kPa and 0.2755 kPa
455 K	0.3407 kPa and 0.3368 kPa and 0.3662 kPa
460 K	0.4694 kPa [middle of 4 runs]
465 K	0.5116 kPa and 0.5424 kPa and 0.5946 kPa
470 K	0.7812 kPa and 0.7818 kPa
475 K	0.9374 kPa
480 K	1.165 kPa and 1.242 kPa and 1.275 kPa
490 K	1.936 kPa and 2.038 kPa
500 K	3.196 kPa
510 K	4.926 kPa
515 K	6.077 kPa
